In BindingDB's records for doi:10.1021/jm00403a014 (National Institute of Diabetes, Digestive and Kidney …, 1988):

Assay: Binding affinity to sigma site of Phencyclidine receptor by displacement of [3H]-(+)-SKF- 10,047

c1ccc(C2(N3CCCCC3)CCCCC2)cc1
Ki: 0.53 µM
